Experimental data reported in US8586551B2, “18-membered macrocycles and analogs thereof” (Optimer Pharmaceuticals, Inc., priority 2005, dated 2013).
Converted amounts (≈) assume the structure as drawn.

Legend:
[1] = test system: C. difficile clinical isolates; assay: MIC via agar dilution versus 110 clinical isolates of C. difficile; format: cell-based
[2] = test system: Bacteroides fragilis; assay: MIC against anaerobes: Bacteroides fragilis; format: cell-based; conditions: Bacteroides fragilis (19)
Experimental: (§1) The in vitro activity of OPT-80 was determined against 350 anaerobes. The experimental procedure for which is outlined in Antimicrobial Agents and Chemotherapy, 2004, 48: 4430-4434, which is hereby incorporated by reference in its entirety.
(§2) All organisms, including the 21 C. difficile strains, were separate isolates and not clonally related. All quality-control gram-negative and -positive strains recommended by NCCLS were included with each run: in every case, results (where available) were in range.

[3] = test system: Non-fragilis B. fragilis group species; assay: MIC against anaerobes: non-fragilis B. fragilis group; format: cell-based; conditions: Bacteroides fragilis; Non-fragilis B. fragilis group species (38)
Experimental: as §1, §2

[4] = test system: Peptostreptococcus anaerobius; assay: MIC against anaerobes: Peptostreptococcus anaerobius; format: cell-based; conditions: Peptostreptococcus anaerobius (15)
[5] = test system: Peptostreptococcus prevotii; assay: MIC against anaerobes: Peptostreptococcus prevotii; format: cell-based; conditions: Peptostreptococcus prevotii (3)
[6] = test system: Eggerthella lenta; assay: MIC against anaerobes: Eggerthella lenta; format: cell-based; conditions: Eggerthella lenta (10)
[7] = test system: Clostridium tertium; assay: MIC against anaerobes: Clostridium tertium; format: cell-based; conditions: Clostridium tertium (10)
[8] = test system: Clostridium species; assay: MIC against anaerobes: Clostridium species; format: cell-based; conditions: Clostridium species (19)
Experimental: as §1, §2

[9] = test system: Other anaerobic gram-negative rods; assay: MIC against intestinal bacteria: other anaerobic gram-negative rods; format: cell-based
[10] = test system: All anaerobic gram-negative species; assay: MIC against intestinal bacteria: all anaerobic gram-negative species; format: cell-based
[11] = test system: Clostridium bolteae; assay: MIC against intestinal bacteria: Clostridium bolteae; format: cell-based; conditions: Clostridium bolteae (7)
[12] = test system: Clostridium glycolicum; assay: MIC against intestinal bacteria: Clostridium glycolicum; format: cell-based; conditions: Clostridium glycolicum (9)
[13] = test system: Clostridium paraputrificum; assay: MIC against intestinal bacteria: Clostridium paraputrificum; format: cell-based; conditions: Clostridium paraputrificum (8)
[14] = test system: All anaerobic gram-positive species; assay: MIC against intestinal bacteria: all anaerobic gram-positive species; format: cell-based
[15] = test system: Streptococcus, formerly S. milleri group; assay: MIC against intestinal bacteria: Streptococcus, formerly S. milleri group; format: cell-based
[16] = test system: 453 bacterial isolates; assay: MIC against intestinal bacteria: total for all strains; format: cell-based
[17] = test system: C. difficile; assay: MIC versus C. difficile strains; conditions: Clostridioides difficile
[18] = test system: E. faecium; assay: MIC against other microorganisms: E. faecium

In the case of CCc1c(Cl)c(O)c(Cl)c(O)c1C(=O)O[C@H]1[C@H](O)[C@H](OC)[C@H](OCC2=CC=CC[C@H](O)C(C)=C[C@H](CC)[C@@H](O[C@@H]3OC(C)(C)[C@@H](OC(=O)C(C)C)[C@H](O)[C@@H]3O)C(C)=CC(C)=CC[C@@H]([C@@H](C)O)OC2=O)O[C@@H]1C [R-Tiacumicin B, 3-[[[6-Deoxy-4-O-(3,5-dichloro-2-ethyl-4,6-dihydroxybenzoyl)-2-O-methyl-β-D-mannopyranosyl]oxy]-methyl]-12(R)-[[6-deoxy-5-C-methyl-4-O-(2-methyl-1-oxopropyl)-β-D-lyxo-hexopyranosyl]oxy]-11(S)-ethyl-8(S)-hydroxy-18(S)-(1(R)-hydroxyethyl)-9,13,15-trimethyloxacyclooctadeca-3,5,9,13,15-pentaene-2-one], the MIC ([1]; isolate AN1 464) is reported as 0.125 µg/mL (≈ 0.118 µM), the MIC ([1]; isolate AO1 287) is reported as 0.125 µg/mL (≈ 0.118 µM) and the MIC ([1]; isolate AS1 4099) is reported as 0.125 µg/mL (≈ 0.118 µM). It also gave an MIC ([1]; isolate AT1 1216) of 0.125 µg/mL (≈ 0.118 µM), an MIC ([1]; isolate AW1 4501) of 0.125 µg/mL (≈ 0.118 µM) and an MIC ([1]; isolate BE1 4307) of 0.125 µg/mL (≈ 0.118 µM). The MIC ([1]; isolate BI1 1675) was 0.125 µg/mL (≈ 0.118 µM), the MIC ([1]; isolate BK1 4291) was 0.125 µg/mL (≈ 0.118 µM) and the MIC ([1]; isolate BL1 716) was 0.125 µg/mL (≈ 0.118 µM). The MIC ([1]; isolate BN1 1322) was 0.125 µg/mL (≈ 0.118 µM), the MIC ([1]; isolate BW1 3130) was 0.125 µg/mL (≈ 0.118 µM) and the MIC ([1]; isolate BX1 4271) was 0.125 µg/mL (≈ 0.118 µM). For the same compound, the MIC ([1]; isolate CF1 5922) was 0.125 µg/mL (≈ 0.118 µM), the MIC ([1]; isolate CG1 1566) was 0.125 µg/mL (≈ 0.118 µM) and the MIC ([1]; isolate CJ1 893) was 0.125 µg/mL (≈ 0.118 µM). It also gave an MIC ([1]; isolate CP1 5491) of 0.125 µg/mL (≈ 0.118 µM), an MIC ([1]; isolate F1 1015) of 0.125 µg/mL (≈ 0.118 µM) and an MIC ([1]; isolate G1 1077) of 0.125 µg/mL (≈ 0.118 µM). The MIC ([1]; isolate I1 1389) was 0.125 µg/mL (≈ 0.118 µM), the MIC ([1]; isolate K1 4305) was 0.125 µg/mL (≈ 0.118 µM) and the MIC ([1]; isolate K14 5780) was 0.125 µg/mL (≈ 0.118 µM). For the same compound, the MIC ([1]; isolate L1 1423) was 0.125 µg/mL (≈ 0.118 µM), the MIC ([1]; isolate N1 471) was 0.125 µg/mL (≈ 0.118 µM) and the MIC ([1]; isolate R1 397) was 0.125 µg/mL (≈ 0.118 µM). For the same compound, the MIC ([1]; isolate V1 1521) was 0.125 µg/mL (≈ 0.118 µM), the MIC ([1]; isolate W1 3931) was 0.125 µg/mL (≈ 0.118 µM) and the MIC ([1]; isolate X1 1890) was 0.125 µg/mL (≈ 0.118 µM). It also gave an MIC50 [2] greater than 128 µg/mL, an MIC90 [2] greater than 128 µg/mL and an MIC50 [3] greater than 128 µg/mL. The MIC90 [3] was greater than 128 µg/mL, the MIC50 [4] was less than 0.016 µg/mL and the MIC90 [4] was less than 0.016 µg/mL. The MIC range [4] was less than 0.016 to 0.03 µg/mL, the MIC range [5] was 0.25 to 1.0 µg/mL and the MIC50 [6] was less than 0.016 µg/mL. It also gave an MIC90 [6] of less than 0.03 µg/mL, an MIC range [6] of less than 0.016 to 0.06 µg/mL and an MIC50 [7] of less than 0.016 µg/mL. It also gave an MIC90 [7] of 0.03 µg/mL (≈ 0.0284 µM), an MIC range [7] of less than 0.016 to 0.06 µg/mL and an MIC50 [8] of less than 0.016 µg/mL. It also gave an MIC90 [8] of 0.03 µg/mL (≈ 0.0284 µM), an MIC50 [9] of 1020 µg/mL (≈ 968 µM) and an MIC90 [9] greater than 1020 µg/mL. The MIC range ([9]; Other anaerobic gram-negative rods (51)) was 0.06 to 1024 µg/mL, the MIC90 [10] was greater than 1020 µg/mL and the MIC50 ([10]; All anaerobic gram-negative species (111)) was 256 µg/mL (≈ 242 µM). The MIC range [11] was 1 to 64 µg/mL, the MIC range [12] was 0.06 to 1 µg/mL and the MIC range [13] was 0.06 to 8 µg/mL. For the same compound, the MIC50 [14] was 0.12 µg/mL (≈ 0.113 µM), the MIC90 ([14]; All anaerobic gram-positive species (219)) was 64 µg/mL (≈ 60.5 µM) and the MIC50 [15] was 32 µg/mL (≈ 30.2 µM). The MIC90 [15] was 32 µg/mL (≈ 30.2 µM), the MIC range ([15]; formerly S. milleri group (14)) was 16 to 64 µg/mL and the MIC90 [16] was 1020 µg/mL (≈ 968 µM). The MIC50 ([16]; Total for all strains (453)) was 8 µg/mL (≈ 7.56 µM), the MIC [17] was 0.125 µg/mL (≈ 0.118 µM) and the MIC ([17]; ATCC9689) was 0.03 µg/mL (≈ 0.0284 µM). For the same compound, the MIC ([17]; ATCC17857) was 0.03 µg/mL (≈ 0.0284 µM), the MIC ([17]; ATCC43255) was 0.125 µg/mL (≈ 0.118 µM) and the MIC ([18]; Enterococcus faecium) was 1 µg/mL (≈ 0.945 µM). The MIC ([18]; Strain ID # 8, E. faecium Vanc. resistant) was 1 µg/mL (≈ 0.945 µM).
